This is an account of results in patent US6403573B1, “Compounds of azetidine and pyrrolidin” (Akzo Nobel N.V., priority 2000, dated 2002).

Bounds are passed on as bounds.

As a reminder, the melting point is the temperature, or range, at which the solid turns liquid.

The target of one data set is T1, 5HT2C receptors (Rattus norvegicus, UniProt P08909).
T1 construct: from tissue; host or cells: living rats (in vivo)
T1 sequence (P08909 33-460): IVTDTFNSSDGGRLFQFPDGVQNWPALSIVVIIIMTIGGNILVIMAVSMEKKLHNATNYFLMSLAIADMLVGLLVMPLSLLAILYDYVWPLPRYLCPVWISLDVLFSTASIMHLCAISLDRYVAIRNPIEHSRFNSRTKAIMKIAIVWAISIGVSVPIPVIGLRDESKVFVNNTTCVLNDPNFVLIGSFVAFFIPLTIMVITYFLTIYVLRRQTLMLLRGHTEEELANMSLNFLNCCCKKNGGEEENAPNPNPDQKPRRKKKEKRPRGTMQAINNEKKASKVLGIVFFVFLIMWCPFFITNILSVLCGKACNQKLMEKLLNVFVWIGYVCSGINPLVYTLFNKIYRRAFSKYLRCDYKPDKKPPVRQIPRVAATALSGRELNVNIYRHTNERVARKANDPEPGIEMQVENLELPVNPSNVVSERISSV
Nature of the data set: Penile erection test. In kind it is in vivo, rats. An excerpt:
This test, carried out according to the protocol of Berendsen et al [“Involvement of 5-HT1C receptors in drug-induced penile erections in rats”—Psychopharmacology 101: 57-61(1990)] enables the potential in vivo activity at 5HT2C receptors to be assessed.

A short description of a further data set: DRL-72 test. The data set is classed as in vivo, rats. An excerpt:
This test, carried out according to the protocol of Andrews et al [“Effects of imipramine and mirtazapine on operant performance in rats”—Drug Development Research 32: 58-66 (1994)], gives an indication of potential antidepressant-like activity.

The target of the next data set is T2, 5-HT2C receptors (Homo sapiens, UniProt P28335).
T2 construct: expressed in transfected cells; host or cells: 3T3 cells
T2 sequence (P28335 33-458): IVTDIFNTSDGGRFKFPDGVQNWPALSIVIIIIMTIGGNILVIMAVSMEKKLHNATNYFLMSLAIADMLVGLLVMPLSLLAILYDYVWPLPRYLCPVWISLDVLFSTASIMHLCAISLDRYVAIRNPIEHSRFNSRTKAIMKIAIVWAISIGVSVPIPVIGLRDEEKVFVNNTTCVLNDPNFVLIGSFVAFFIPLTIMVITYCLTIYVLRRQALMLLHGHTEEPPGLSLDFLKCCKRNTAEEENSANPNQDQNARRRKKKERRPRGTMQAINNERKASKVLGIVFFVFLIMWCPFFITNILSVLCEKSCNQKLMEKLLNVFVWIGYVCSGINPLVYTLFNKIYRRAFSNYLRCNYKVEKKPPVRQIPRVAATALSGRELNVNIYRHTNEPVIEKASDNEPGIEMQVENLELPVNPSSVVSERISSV
Nature of the data set: Binding test, displacement of [3H]-mesulergine, cloned human receptors expressed in 3T3 cells. The procedure:
The tests are carried out using cloned human receptors expressed in 3T3 cells according to the protocols described in Stam et at “Genomic organization, coding sequence and functional expression of human 5-HT2 and 5-HT1A receptor genes”—European Journal of Pharmacology—Molecular Pharmacology Section 227: 153-162 (1993) and Stam et al “Genomic organisation and functional expression of the gene encoding the human serotonin 5-HT2C receptor”—European Journal of Pharmacology—Molecular Pharmacology Section 269: 339-348 (1994).

Take `Cc1ccc2ccccc2c1OC1CNC1.Cl`: the melting point was 171 °C.

In turn, `COc1ccc2c(c1O[C@H]1CCNC1)CCC2.Cl` [Compound 9a, (S)-(+)-3-[(2,3-Dihydro-5-methoxy-1H-inden-4-yl)oxy]-pyrrolidine Hydrochloride] registered a melting point of 176 °C. Further, the “Erection of the penis (MED)” value on 5HT2C receptors worked out at 0.46 mg/kg. The “Increase in pellets earned in DRL-72 (MED)” value (from here on “Increase in pellets earned”) in the data set “DRL-72 test” stood at 3 mg/kg.

The compound `Cl.Clc1ccc2c(c1OC1CNC1)CCC2` yielded a melting point of 188 °C.

In turn, `Cl.c1ccc2c(SC3CNC3)cccc2c1` had a melting point of 159 °C.

`Cl.c1cc2c(c(OC3CNC3)c1)CCC2` had a melting point of 65 °C.

The compound `COc1ccc2c(c1OC1CNC1)CCCC2.Cl` came in with a melting point of 164 °C.

For the compound `Cl.c1cc2c(c(OC3CCNC3)c1)CCCC2` (centres unmarked) [Compound 9b, 3-[(5,6,7,8-Tetrahydro-1-naphthalenyl)oxy]-pyrrolidine hydrochloride], the melting point is 207 °C. On 5-HT2C receptors, the “selective effect on 5-HT2C receptors in the central nervous system” value was “selective effect on 5-HT2C receptors”.

Compound `Cl.c1cc2c(c(OC3CNC3)c1)CCCC2` returned a melting point of 187 °C.

With `Cl.c1cc2c(c(OC3CNC3)c1)NCCC2`, the melting point was more than 250 °C.

For the compound `COc1ccc(OC2CNC2)c2ccccc12.Cl`, the melting point turned out to be 198 °C.

Compound `Cc1ccc(OC2CNC2)c2ccccc12.Cl` registered a melting point of 180 °C.

Take `Cl.c1ccc2cc(OC3CNC3)ccc2c1`: the melting point came out at 168 °C.

Compound `Cl.Cl.c1cc(OC2CNC2)c2ccncc2c1` had a melting point of 198 °C.

In turn, `COc1ccc2c(c1OC1CNC1)CCC2.Cl` [Compound 5d, 3-[(2,3-Dihydro-5-methoxy-1H-inden-4-yl)oxy]-azetidine hydrochloride] returned a melting point of 166 °C. The “Erection of the penis (MED)” value on 5HT2C receptors was 1 mg/kg. In addition, in “DRL-72 test”, the “Increase in pellets earned” value is 10 mg/kg.

Compound `COCc1ccc2ccccc2c1OC1CNC1.Cl` had a melting point of 127 °C.

Turning to `Cl.c1cc(OC2CNC2)c2ccsc2c1`, the melting point is 203 °C.

With `Cl.c1ccc2c(OC3CNC3)cccc2c1`, the melting point amounted to 292 °C.

For `Cl.c1ccc2c(OC3CCNC3)cccc2c1` (racemic) [Compound 10c, (rac)-3-[(1-Naphtalenyl)oxy]pyrrolidine hydrochloride], the “selective effect on 5-HT2C receptors in the central nervous system” value on 5-HT2C receptors is on record as “selective effect on 5-HT2C receptors”.

Compound `COc1ccc2c(c1OC1CCNC1)CCC2.Cl` (racemic) [Compound 10b, (rac)-3-[(2,3-Dihydro-5-methoxy-1H-inden-4-yl)oxy] pyrrolidine hydrochloride] displayed a melting point of 154 °C. For the same compound, the “Erection of the penis (MED)” value at 5HT2C receptors was determined as 1 mg/kg. In addition, the “Increase in pellets earned” value in the data set “DRL-72 test” came out at 10 mg/kg.

The compound `CC1CCc2c(OC3CNC3)cc(F)cc21.Cl` (centres unmarked) came in with a melting point of 170 °C.

The compound `Cl.Clc1cc(Cl)c2ccccc2c1OC1CNC1` returned a melting point of 187 °C.

Regarding `COc1ccc2c(c1O[C@@H]1CCNC1)CCC2.Cl`, the melting point is 174 °C.
